From PMC6304311 (Influenza and Other Respiratory Viruses, 2018)
Where two headings read alike, the source gives them in different places.

Columns and labels:
[1] = target: T1, NA from influenza A(H3N2) virus isolates (Influenza A virus, UniProt V5P6L4); settings: cited from earlier work
[2] = target: T1, NA from influenza A(H3N2) virus isolates; format: biochemical
[3] = system: NA from influenza A(H1N1)pdm09 virus isolates; settings: cited from earlier work; for IC50: read-out: IC50, susceptible reference strain
[4] = target: T2, NA from influenza A(H1N1) virus isolates (Influenza A virus, UniProt C0LLZ0); format: biochemical
[5] = target: T2, NA from influenza A(H1N1) virus isolates; settings: cited from earlier work
[6] = target: NA from influenza A(H1N1)pdm09 virus isolates (Influenza A virus, UniProt C7FH46); format: biochemical
[7] = target: NA from influenza B virus isolates (Influenza B virus, UniProt A0A1S5RAG6); format: biochemical
[8] = read-out: IC50, susceptible reference strain

Structure (SMILES)	IC50 [1, 8] [nM]	Susceptible [2]	IC50 ([2]; read-out: IC50 Median (range)) [nM]	IC50 ([2]; read-out: IC50 Statistical cutoff (X 0.75 + 3IQR)) [nM]	IC50 ([2]; read-out: IC50 X 0.75 (75th percentile)) [nM]	IC50 [3] [nM]	Susceptible [4]	outlier virus isolates [4]	share of virus isolates with markedly increased IC50 [4] [%]	IC50 [5, 8] [nM]	Susceptible [6]	Susceptible [7]	susceptibility phenotype of reference virus [1]	susceptibility phenotype of reference virus [3]	susceptibility phenotype of reference virus [5]
CCOC(=O)C1=C[C@@H](OC(CC)CC)[C@H](NC(C)=O)[C@@H](N)C1 [oseltamivir]	0.21	susceptible and Yes	0.05	0.15	0.06	0.1	susceptible and Yes and No	2/4	97.9	0.13	susceptible and Yes	susceptible and Yes	–	–	–
CC(=O)N[C@H]1[C@H]([C@H](O)[C@H](O)CO)OC(C(=O)O)=C[C@@H]1N=C(N)N [zanamivir]	–	susceptible and Yes	–	–	–	0.42	susceptible and Yes	3/4	–	–	susceptible and Yes	–	susceptible	susceptible	susceptible
